# Measured values published in paper PMC11094307, “Marine-derived EGFR inhibitors: novel compounds targeting breast cancer growth and drug resistance” (Frontiers in Pharmacology, 2024).
# Key:
# A431 cells = test: MTT assay, A431; assay type: cell-based, human; conditions: A431 (high EGFR-expressing), 10 μM
# Experimental: (§1) The cell lines MCF-7 and A431 were cultured in Dulbecco’s Modified Eagle’s Medium (DMEM, Gibco, USA), while HL-60, H1299, and A549 cells were maintained in RPMI-1640 medium (Gibco, USA). Both mediums were enriched with 10% fetal bovine serum and 1% penicillin/streptomycin. […] All cell cultures were incubated at 37°C in an atmosphere containing 5% CO2.
# (§2) Cells in the exponential growth phase were seeded into 96-well plates and allowed to adhere overnight. Subsequently, they were treated in triplicate with various concentrations of the compounds (0, 1.56, 3.13, 6.25, 12.5, 25, 50, 100 µM), […]. After 24 h, 20 µL of Methyl-thiazolyldiphenyl-tetrazolium bromide (MTT, 5 mg/mL, Thermo Fisher Scientific) was added to each well and incubated for a minimum of 4 h. Following the incubation, the medium containing the compounds and MTT was removed from each well, and 200 µL of dimethyl sulfoxide (DMSO) was added. The plates were then shaken for 10 min at 37°C to dissolve the formazan crystals. The absorbance was measured using a microplate reader (BioTek Synergy 4) at a wavelength of 490 nm.
# HL-60 cells = test: MTT assay, HL-60; assay type: cell-based, human; conditions: HL-60 (low EGFR-expressing), 10 μM
# Experimental: as §1, §2
# MCF-10A cells = test: MTT assay, MCF-10A; assay type: cell-based, human; conditions: MCF-10A (non-tumorigenic epithelial), 10 μM
# Experimental: as §1, §2
# BAX = test: Western blotting of MCF-7 lysates, BAX; assay type: cell-based, human; conditions: for BAX WB Normalized: control 0 µM 0.795076455
# Experimental: (§3) MCF-7 cell lysates were prepared by rinsing the cells twice with PBS and then solubilizing them in lysis buffer (NP40 supplemented with protease and phosphatase inhibitor cocktails) on ice. The solubilization process involved rotating the lysis buffer/cell mixture end over end for 10 min at 4°C. After centrifugation for 10 min at 4°C to remove insoluble material, the protein concentration of the solubilized protein was determined using a BCA assay. Subsequently, samples were diluted in SDS sample buffer. Equivalent amounts of protein were separated by SDS-PAGE, transferred to PVDF membranes, and probed with the indicated antibody. Prior to incubation with primary antibodies overnight at 4°C, the membranes were blocked with 5% skim milk-TBST. The antibodies and their sources were as follows: PARP1 (1:500, Santa Cruz Biotechnology), Cleaved Caspase-3 (1:1000, Cell Signaling Technology), BAX (1:500, Santa Cruz Biotechnology), BCL-2 (1:500, Santa Cruz Biotechnology), and GAPDH (1:500, Santa Cruz Biotechnology). Following incubation with horseradish peroxidase-conjugated goat anti-mouse or goat anti-rabbit secondary antibody (Santa Cruz Biotechnology), the detected proteins were visualized using the Pierce Enhanced Chemiluminescence (ECL) reagent and a UV Products imaging system. Band intensities were quantified using the National Institutes of Health ImageJ software.
# BCL-2 = test: Western blotting of MCF-7 lysates, BCL-2; assay type: cell-based, human; conditions: for BCL-2 WB Normalized: control 0 µM 0.841817367
# Experimental: as §3
# EGFR T790M = molecular target: T1, EGFR T790M (Homo sapiens, UniProt P00533, T790M); test: Kinase inhibition assay (ADP-Glo, Promega); assay type: biochemical; conditions: in vitro kinase assay; read-out: IC50 against EGFR T790M
# T1 construct: purchased Promega Corporation, USA
# Experimental: The extracellular ligand-binding domain of EGFR, tagged with His, and the intracellular tyrosine kinase (TK) domain of EGFR, tagged with GST, were acquired from Sinobiological, China. […] Cell lines including MCF-7, A549, A431, H1299, HL-60, and MCF-10A were obtained from the China Infrastructure Cell Line Resources.
# (§4) The experiments were conducted in accordance with the manufacturer’s guidelines (Promega). The procedure began with a kinase reaction, where 5 μL of 1× kinase buffer was utilized, and the mixture was incubated at room temperature for 60 min. This step was followed by the addition of 5 μL of ADP-Glo™ reagent to terminate the kinase reaction and to deplete any remaining ATP, with a subsequent incubation period of 40 min at room temperature. Next, 10 μL of kinase detection reagent was added to convert ADP back into ATP, and luciferase along with luciferin was introduced to facilitate ATP detection. This mixture was then incubated at room temperature for an additional 30 min. Detection was carried out using a BioTek Synergy4 instrument, and data analysis, including curve fitting and presentation, was performed using GraphPad Prism version 5.0.
# All experiments were repeated at least three times, and the data are presented as mean ± standard deviation (SD). The statistical analyses were performed using Origin. EC50 or IC50 values were obtained by fitting the data to a four-parameter Hill model of the graph of log dose against percentage cell viability or inhibition from at least three sets of experiments. Difference between two groups were analyzed by Student’s t test (two-sided) and significance was set at p < 0.05. The specific details about statistical methods are introduced in respective figure legends.
# FGFR2 = FGFR2 (Homo sapiens, UniProt P21802); test: Kinase profiling; assay type: biochemical; conditions: one of the other seven tyrosine kinases
# Experimental: as §4, with “5.0. […]; [Song et al., 2017]; [Abou-Zied et al., 2019]).” for “5.0.”
# HER4 = HER4 (Homo sapiens, UniProt Q15303); test: Kinase profiling; assay type: biochemical
# Experimental: as §4, with “5.0. […]; [Song et al., 2017]; [Abou-Zied et al., 2019]).” for “5.0.”
# EGFR kinase domain = molecular target: T2, EGFR kinase domain (Homo sapiens, UniProt P00533); test: Differential Scanning Fluorimetry (DSF); assay type: binding; conditions: 10 µM; 52.6°C at 0 µM
# T2 construct: the intracellular tyrosine kinase (TK) domain of EGFR, tagged with GST; purchased Sinobiological, China
# Experimental: In the Differential Scanning Fluorimetry (DSF) study, concentrations of Tandyukisin-1.3, 2.5, 5, and 10 µM-were incubated with 0.05 mg/mL of the EGFR kinase domain. A control sample, containing only 5% DMSO, was used alongside the EGFR kinase domain. The thermal stability of the EGFR kinase domain was assessed using PR NT.48 (NanoTemper). The assay conditions were set to a temperature range of 25°C–95°C with a ramp rate of 1 °C/min.
# T1 sequence (P00533 25-1210 T790M): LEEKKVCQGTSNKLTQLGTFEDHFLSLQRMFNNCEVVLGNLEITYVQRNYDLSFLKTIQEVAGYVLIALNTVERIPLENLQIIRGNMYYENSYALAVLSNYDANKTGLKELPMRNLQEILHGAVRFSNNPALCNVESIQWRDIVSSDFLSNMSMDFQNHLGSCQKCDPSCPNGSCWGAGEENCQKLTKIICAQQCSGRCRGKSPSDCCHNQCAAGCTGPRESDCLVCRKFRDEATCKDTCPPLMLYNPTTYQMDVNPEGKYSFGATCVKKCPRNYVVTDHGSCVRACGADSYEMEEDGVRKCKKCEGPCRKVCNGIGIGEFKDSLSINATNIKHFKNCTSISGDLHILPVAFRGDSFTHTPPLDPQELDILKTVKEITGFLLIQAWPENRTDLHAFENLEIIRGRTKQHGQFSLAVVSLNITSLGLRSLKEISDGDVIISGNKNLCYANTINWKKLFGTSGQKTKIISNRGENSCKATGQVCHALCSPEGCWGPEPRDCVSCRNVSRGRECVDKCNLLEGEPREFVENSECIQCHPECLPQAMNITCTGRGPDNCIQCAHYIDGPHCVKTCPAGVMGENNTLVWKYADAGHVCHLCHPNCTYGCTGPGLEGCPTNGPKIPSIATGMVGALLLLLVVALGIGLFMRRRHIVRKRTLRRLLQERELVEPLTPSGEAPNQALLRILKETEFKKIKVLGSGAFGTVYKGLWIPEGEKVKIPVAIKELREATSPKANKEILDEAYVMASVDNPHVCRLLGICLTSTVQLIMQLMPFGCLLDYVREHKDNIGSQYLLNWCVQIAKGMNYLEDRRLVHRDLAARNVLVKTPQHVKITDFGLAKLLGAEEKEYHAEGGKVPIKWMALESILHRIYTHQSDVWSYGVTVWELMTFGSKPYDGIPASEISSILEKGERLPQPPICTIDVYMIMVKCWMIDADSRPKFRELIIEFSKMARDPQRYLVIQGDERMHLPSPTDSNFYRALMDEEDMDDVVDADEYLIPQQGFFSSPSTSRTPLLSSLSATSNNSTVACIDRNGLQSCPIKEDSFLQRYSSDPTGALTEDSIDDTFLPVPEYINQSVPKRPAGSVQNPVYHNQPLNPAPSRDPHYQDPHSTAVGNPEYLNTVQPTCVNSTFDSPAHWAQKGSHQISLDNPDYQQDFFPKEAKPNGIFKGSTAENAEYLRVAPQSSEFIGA
# HER4, sequence (Q15303 26-1308): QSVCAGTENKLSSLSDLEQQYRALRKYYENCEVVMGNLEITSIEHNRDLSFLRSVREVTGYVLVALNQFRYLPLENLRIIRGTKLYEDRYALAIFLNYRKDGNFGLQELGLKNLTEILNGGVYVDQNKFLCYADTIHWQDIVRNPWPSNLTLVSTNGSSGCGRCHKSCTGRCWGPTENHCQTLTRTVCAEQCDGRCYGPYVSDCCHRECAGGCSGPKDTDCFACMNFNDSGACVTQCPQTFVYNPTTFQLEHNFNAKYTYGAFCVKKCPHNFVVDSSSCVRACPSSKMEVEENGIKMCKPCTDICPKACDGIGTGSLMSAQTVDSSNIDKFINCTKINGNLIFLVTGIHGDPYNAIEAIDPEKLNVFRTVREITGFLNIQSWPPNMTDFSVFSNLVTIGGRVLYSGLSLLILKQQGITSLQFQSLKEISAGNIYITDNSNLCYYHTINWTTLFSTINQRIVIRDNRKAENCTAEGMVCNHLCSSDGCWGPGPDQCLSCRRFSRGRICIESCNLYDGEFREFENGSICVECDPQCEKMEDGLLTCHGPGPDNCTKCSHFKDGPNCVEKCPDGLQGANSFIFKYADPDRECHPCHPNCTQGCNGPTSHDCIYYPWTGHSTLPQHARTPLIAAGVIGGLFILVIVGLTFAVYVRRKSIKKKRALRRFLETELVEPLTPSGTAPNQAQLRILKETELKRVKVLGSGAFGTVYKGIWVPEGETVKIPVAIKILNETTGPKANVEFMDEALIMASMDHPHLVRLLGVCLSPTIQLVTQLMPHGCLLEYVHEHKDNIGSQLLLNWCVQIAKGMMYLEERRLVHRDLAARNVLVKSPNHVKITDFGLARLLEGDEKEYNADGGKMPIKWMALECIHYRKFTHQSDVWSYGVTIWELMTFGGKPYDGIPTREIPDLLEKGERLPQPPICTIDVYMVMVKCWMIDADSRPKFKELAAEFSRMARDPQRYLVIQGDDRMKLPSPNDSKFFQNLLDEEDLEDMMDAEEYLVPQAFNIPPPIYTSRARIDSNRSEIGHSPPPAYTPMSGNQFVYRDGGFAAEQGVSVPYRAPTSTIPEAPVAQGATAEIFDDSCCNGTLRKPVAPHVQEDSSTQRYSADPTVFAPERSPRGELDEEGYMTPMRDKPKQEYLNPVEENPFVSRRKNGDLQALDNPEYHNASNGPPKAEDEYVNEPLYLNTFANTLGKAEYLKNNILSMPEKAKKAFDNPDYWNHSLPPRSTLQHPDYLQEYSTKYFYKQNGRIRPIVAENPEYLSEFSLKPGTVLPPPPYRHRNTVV
# FGFR2, sequence (P21802 22-821): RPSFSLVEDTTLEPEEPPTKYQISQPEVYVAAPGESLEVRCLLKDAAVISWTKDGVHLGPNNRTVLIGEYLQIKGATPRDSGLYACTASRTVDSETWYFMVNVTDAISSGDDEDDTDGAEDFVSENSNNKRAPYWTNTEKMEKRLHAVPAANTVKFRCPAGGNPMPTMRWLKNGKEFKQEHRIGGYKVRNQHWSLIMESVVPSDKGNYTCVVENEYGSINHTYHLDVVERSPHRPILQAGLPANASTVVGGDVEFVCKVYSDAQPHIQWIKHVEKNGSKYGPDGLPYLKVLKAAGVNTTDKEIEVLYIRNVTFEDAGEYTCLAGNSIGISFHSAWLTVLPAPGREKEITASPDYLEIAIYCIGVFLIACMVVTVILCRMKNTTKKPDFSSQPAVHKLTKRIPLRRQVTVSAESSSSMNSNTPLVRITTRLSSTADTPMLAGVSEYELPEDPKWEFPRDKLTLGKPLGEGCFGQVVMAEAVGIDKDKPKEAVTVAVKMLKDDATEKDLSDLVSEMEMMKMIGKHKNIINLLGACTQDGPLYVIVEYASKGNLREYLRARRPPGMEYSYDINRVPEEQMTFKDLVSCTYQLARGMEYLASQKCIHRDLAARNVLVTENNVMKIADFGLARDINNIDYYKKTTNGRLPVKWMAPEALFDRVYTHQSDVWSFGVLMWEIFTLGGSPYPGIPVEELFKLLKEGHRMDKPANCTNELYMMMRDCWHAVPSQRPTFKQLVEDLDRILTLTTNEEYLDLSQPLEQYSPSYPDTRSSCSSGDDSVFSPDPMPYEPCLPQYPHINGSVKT
# T2 sequence (P00533 712-979 limits assumed): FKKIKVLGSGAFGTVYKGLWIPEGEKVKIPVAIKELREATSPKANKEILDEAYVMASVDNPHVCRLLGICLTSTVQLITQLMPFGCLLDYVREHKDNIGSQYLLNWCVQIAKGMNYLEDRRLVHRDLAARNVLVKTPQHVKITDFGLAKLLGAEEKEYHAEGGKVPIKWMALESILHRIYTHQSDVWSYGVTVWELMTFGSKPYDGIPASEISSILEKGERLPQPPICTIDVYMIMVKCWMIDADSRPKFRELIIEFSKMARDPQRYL
smiles,measurement,setting,value
COC(=O)C/C(C)=C/C(=O)O[C@@H]1C[C@@H](C)[C@H]2[C@@H](C=C[C@H](CC(C)C)[C@]2(C)C(=O)/C=C\O)[C@@H]1O [Tandyukisin],cell lethality percentage,A431 cells,67.3% ± 2.7%
same,cell lethality percentage,HL-60 cells,11.1% ± 1.2%
same,cell lethality percentage,MCF-10A cells,8.9% ± 1.5%
same,BAX WB Gray Value,BAX; 5 µM,19561.731
same,BAX WB Normalized,BAX; 5 µM,0.4461
same,BAX WB Gray Value,BAX; 10 µM,48768.744
same,BAX WB Normalized,BAX; 10 µM,1.12
same,BAX WB Gray Value,BAX; 20 µM,33049.489
same,BAX WB Normalized,BAX; 20 µM,0.9664
same,BCL-2 WB Gray Value,BCL-2; 5 µM,41097.258
same,BCL-2 WB Normalized,BCL-2; 5 µM,0.9373
same,BCL-2 WB Gray Value,BCL-2; 10 µM,21588.48
same,BCL-2 WB Normalized,BCL-2; 10 µM,0.4959
same,BCL-2 WB Gray Value,BCL-2; 20 µM,7215.723
same,BCL-2 WB Normalized,BCL-2; 20 µM,0.211
same,IC50,EGFR T790M,32.6 ± 0.6 nM
same,IC50,FGFR2,> 100000 nM
same,IC50,HER4,31.1 ± 0.1 nM
same,melting temperature (Tm) of EGFR kinase domain,EGFR kinase domain,54.2 °C
